Patent US8252832B2, “Kinesin inhibitors as cancer therapeutics” (Novartis AG, priority 2007, dated 2012)
Where “and” joins values, the source holds several entries; their conditions need not be identical. Equal values may be shown once.

Columns and labels:
[1] = tested on: MV4; 11 human AML subcutaneous xenograft tumors; test: Subcutaneous MV4; 11 tumor xenograft model, tumor response; format: in vivo, mouse
Experimental: Subcutaneous tumor efficacy studies were performed using outbred athymic nu/nu mice approximately 6-8 weeks old (Charles River Laboratories, Hollister, Calif.). The efficacy study in the disseminated disease model was performed using immunodeficient NOD-SCID female mice approximately 7-8 weeks old (Jackson Laboratories, Bar Harbor, Me.). […] Routine animal care and assurance of welfare were as described above.
Human MV4; 11 acute myelogenous leukemia cells were obtained from American Tissue Culture Collection (catalog #CRL-9591, Rockville, Md.) and tested to be free of Mycoplasma sp. and murine viruses in the IMPACT1 PCR assay panel (RADIL, University of Missouri, Columbia, Mo.). For the disseminated disease model, a stable pool of MV4; 11 cells expressing the luciferase gene was received from Fangxian Sun at the Genomics Institute of the Novartis Research Foundation in San Diego, Calif. (MV4; 11-luc). The MV4; 11 cells were grown in Iscove's modified Dulbecco's medium (Mediatech Inc., catalog #15-016-CV) supplemented with 10% fetal bovine serum (JRH Biosciences, catalog #12003-1000M), 4 mM L-glutamine and 5 ng/mL recombinant human […] (GM-CSF) (R&D Systems, catalog #215-GM). MV4; 11-luc were grown in the same media, but with the addition of 2 micrograms/mL of puromycin for selection of luciferase expression. These cells were grown as suspension cultures, maintained at 37° C. in a humidified atmosphere containing 5% carbon dioxide. Cells were cultured for fewer than 10 passages prior to use. Cells were harvested at approximately 2 million cells/mL, and centrifuged at ˜800×g for 5 minutes at 4° C. and then resuspended in a cold HBSS (Mediatech Inc., catalog #21-021-CV) at a concentration of 25 million cells/mL (containing 50% Matrigel™, BD Biosciences, catalog #354234) for implantation subcutaneously (injection volume of 0.2 mL) or at a concentration of 100 million cells/mL for implantation intravenously (i.v.) via the tail vein (injection volume of 0.1 mL). Mice were irradiated with 3 gray for 3 minutes one day prior to the i.v. cell implant.
The compound IIa (free base) and SB-715992 (free base) were formulated in 20% Captisol for a dose volume of 8 mL/kg. Doses were adjusted to each animal's body weight.
For the two efficacy evaluations in the subcutaneous tumor model, 10 million cells combined in a 1:1 mixture of HBSS and Matrigel™ were injected subcutaneously in the right flank in a total volume of 0.2 mL/mouse. […] Tumor volume was calculated as (L×W2)/2.

HCT-116 = test: CTG (CellTiter-Glo) screening assay; format: cell-based; conditions: Homo sapiens
Excerpt: Identification of tumor types that are the most sensitive to the KSP inhibitors of the present invention can be accomplished using an unbiased approach that uses several cell-based assays. The assays chosen were as follows: • CellTiter-Glo®. This is an assay designed to measure ATP concentration in a cell culture, and can be correlated to cell number. Briefly CellTiter-Glo® (Promega Corporation) is a homogeneous method using the single CellTiter-Glo® reagent to detect ATP wherein ATP in the assay drives the activity of a thermostable luciferase to create a luminescent signal which can then be measured and correlated with the number of viable cells. Briefly, for adherent cells, 1,000 to 5,000 cells/well were plated in 96-well plates (100 μl/well) and let to adhere for 24 hours before being treated with drug. For non-adherent cells, 1,000 to 10,000 cells/well were plated in 96-well plates (100 μl/well) and immediately treated with drug. Drug dilutions were prepared in DMSO at 1000 times the final concentration. These dilutions were then diluted 1/100 in growth media before being added to the cells (11 μl/well) to achieve the desired final concentration. […] Protocol for a 72 hour cell proliferation assay: The 72 hour assay was performed the same way as the 48 hour assay except for the following modifications: For adherent cells, 500 to 5,000 cells/well were plated in 96-well plates (90 μl/well cell growth media) and left to adhere for 24 hours before being treated with drug. For non-adherent cells, 1,000 to 10,000 cells/well were plated in 96-well plates (90 μl/well cell growth media) and immediately treated with drug. Data values presented represent the concentration of test compound required for a 50% reduction in growth. • LDH release. […] The enzymatic reaction is coupled to a chemical reaction that uses a tetrazolium salt to form a formazan that is red and can be detected by its absorbance at 490 nm. […]

[2] = Study 2, 0.13 mg/kg, q4d × 3, i.v
[3] = Study 2, 0.25 mg/kg, q4d × 3, i.v
[4] = Study 2, 0.5 mg/kg, q4d × 3, i.v
[5] = Study 2, 1.8 mg/kg, Q4d × 3, i.v
[6] = Study 2, 3.5 mg/kg, Q4d × 3, i.v
[7] = Study 2, 7.5 mg/kg, Q4d × 3, i.v

CC(C)(C)[C@H](c1nc(-c2cc(F)ccc2F)cn1Cc1ccccc1)N(CC[C@H](N)CF)C(=O)CO [Compound IIa]
CR (complete tumor regressions) ([1]; 0.625 mg/kg, q4d × 3, i.v.): 0
Δ Tumor volume, Day 24 ([1]; 0.625 mg/kg, q4d × 3, i.v.): −32 ± 172 mm^3
% Max Regression (Day) ([1]; 0.625 mg/kg, q4d × 3, i.v., D10): 69%
Δ Tumor volume, Day 24 ([1]; 4 mg/kg, q4d × 3, i.v.): −176 ± 31 mm^3
% Max Regression (Day) ([1]; 4 mg/kg, q4d × 3, i.v., D60): 100, %
CR (complete tumor regressions) ([1]; 4 mg/kg, q4d × 3, i.v., listed as COMPOUND IIa): 9
CR (complete tumor regressions) ([1]; 4 mg/kg, q4d × 3, i.v., listed as compound IIa): 9/9
CR (complete tumor regressions) [1, 2]: 0
Δ Tumor volume, Day 21 [1, 2]: 921 ± 341 mm^3
ΔT/ΔC, Day 21 (%) [1, 2]: 161%
CR (complete tumor regressions) [1, 3]: 0
Δ Tumor volume, Day 21 [1, 3]: 765 ± 196 mm^3
ΔT/ΔC, Day 21 (%) [1, 3]: 133%
CR (complete tumor regressions) [1, 4]: 0
Δ Tumor volume, Day 21 [1, 4]: 114 ± 110 mm^3
ΔT/ΔC, Day 21 (%) [1, 4]: 20%
% Max. Regression (Day) ([1]; Study 2, 0.5 mg/kg, q4d × 3, i.v, D10): 55 (D10) %
CR (complete tumor regressions) ([1]; Study 2, 1 mg/kg, q4d × 3, i.v): 6
Δ Tumor volume, Day 21 ([1]; Study 2, 1 mg/kg, q4d × 3, i.v): −194 ± 27 mm^3
% Max. Regression (Day) ([1]; Study 2, 1 mg/kg, q4d × 3, i.v, D63): 89 (D63) %
CR (complete tumor regressions) ([1]; Study 2, 2 mg/kg, q4d × 3, i.v): 5
Δ Tumor volume, Day 21 ([1]; Study 2, 2 mg/kg, q4d × 3, i.v): −201 ± 23 mm^3
% Max. Regression (Day) ([1]; Study 2, 2 mg/kg, q4d × 3, i.v, D63): 87 (D63) %
GI50 (HCT-116; HCT-116, 24 h): > 5 nM
GI50 (HCT-116; HCT-116, 48 h): 0.11 nM
GI50 (HCT-116; HCT-116, 72 h): 0.13 nM

CC(=O)O[C@H]1C(=O)[C@@]2(C)[C@H]([C@H](OC(=O)c3ccccc3)[C@]3(O)C[C@H](OC(=O)[C@H](O)[C@@H](NC(=O)c4ccccc4)c4ccccc4)C(C)=C1C3(C)C)[C@]1(OC(C)=O)CO[C@@H]1C[C@@H]2O [Paclitaxel, reference compound]
CR (complete tumor regressions) ([1]; 1 mg/kg, q4d × 3, i.p.): 7
Δ Tumor volume, Day 24 ([1]; 1 mg/kg, q4d × 3, i.p.): −151 ± 63 mm^3
% Max Regression (Day) ([1]; 1 mg/kg, q4d × 3, i.p., D46): 75%
CR (complete tumor regressions) ([1]; 1 mg/kg, q4d × 3, i.p., listed as paclitaxel): 7/9

Cc1ccc(C(=O)N(CCCN)[C@@H](c2nc3cc(Cl)ccc3c(=O)n2Cc2ccccc2)C(C)C)cc1 [SB-715992, Ispinesib, reference compound]
CR (complete tumor regressions) ([1]; 15 mg/kg, q4d × 3, i.v.): 6/9 and 6
Δ Tumor volume, Day 24 ([1]; 15 mg/kg, q4d × 3, i.v.): −211 ± 28 mm^3
% Max Regression (Day) ([1]; 15 mg/kg, q4d × 3, i.v., D60): 98%
CR (complete tumor regressions) [1, 5]: 0
Δ Tumor volume, Day 21 [1, 5]: 339 ± 218 mm^3
ΔT/ΔC, Day 21 (%) [1, 5]: 59%
CR (complete tumor regressions) [1, 6]: 0
Δ Tumor volume, Day 21 [1, 6]: 251 ± 132 mm^3
ΔT/ΔC, Day 21 (%) [1, 6]: 44%
% Max. Regression (Day) ([1]; Study 2, 3.5 mg/kg, Q4d × 3, i.v, D10): 41 (D10) %
CR (complete tumor regressions) [1, 7]: 3
Δ Tumor volume, Day 21 [1, 7]: −204 ± 20 mm^3
% Max. Regression (Day) ([1]; Study 2, 7.5 mg/kg, Q4d × 3, i.v, D31): 75 (D31) %
